Measurements as given in ChEMBL document CHEMBL1155125 (Bioorg Med Chem Lett, 2008).

Tests used:
[1] = system: Cystic fibrosis transmembrane conductance regulator (Homo sapiens), P13569 [F508del]; experiment: Agonist activity at CFTR-deltaF508 mutant expressed in NIH3T3 cells assessed as increase in forskolin-stimulated current at 20 uM by whole cell assay relative to control; format: functional, cell-based
[2] = system: Cystic fibrosis transmembrane conductance regulator (Homo sapiens), P13569 [F508del]; experiment: Agonist activity at CFTR-deltaF508 mutant expressed in NIH3T3 cells assessed as increase in forskolin-stimulated current at 30 uM by whole cell assay relative to genistein; format: functional, cell-based
[3] = system: Cystic fibrosis transmembrane conductance regulator (Homo sapiens), P13569 [K1250A]; experiment: Agonist activity at CFTR-K1250A mutant assessed as increase in forskolin-stimulated current at 5 uM; format: functional
[4] = target: Cystic fibrosis transmembrane conductance regulator (Homo sapiens, UniProt P13569, F508DEL); experiment: Agonist activity at CFTR-deltaF508 mutant expressed in NIH3T3 cells assessed as increase in forskolin-stimulated current; format: functional, cell-based
[5] = system: Cystic fibrosis transmembrane conductance regulator (Homo sapiens), P13569 [F508del]; experiment: Agonist activity at CFTR-deltaF508 mutant expressed in NIH3T3 cells assessed as increase in forskolin-stimulated current at 30 uM by whole cell assay relative to control; format: functional, cell-based

Sequence of Cystic fibrosis transmembrane conductance regulator (Homo sapiens), P13569 [F508del] (P13569 as listed by the source): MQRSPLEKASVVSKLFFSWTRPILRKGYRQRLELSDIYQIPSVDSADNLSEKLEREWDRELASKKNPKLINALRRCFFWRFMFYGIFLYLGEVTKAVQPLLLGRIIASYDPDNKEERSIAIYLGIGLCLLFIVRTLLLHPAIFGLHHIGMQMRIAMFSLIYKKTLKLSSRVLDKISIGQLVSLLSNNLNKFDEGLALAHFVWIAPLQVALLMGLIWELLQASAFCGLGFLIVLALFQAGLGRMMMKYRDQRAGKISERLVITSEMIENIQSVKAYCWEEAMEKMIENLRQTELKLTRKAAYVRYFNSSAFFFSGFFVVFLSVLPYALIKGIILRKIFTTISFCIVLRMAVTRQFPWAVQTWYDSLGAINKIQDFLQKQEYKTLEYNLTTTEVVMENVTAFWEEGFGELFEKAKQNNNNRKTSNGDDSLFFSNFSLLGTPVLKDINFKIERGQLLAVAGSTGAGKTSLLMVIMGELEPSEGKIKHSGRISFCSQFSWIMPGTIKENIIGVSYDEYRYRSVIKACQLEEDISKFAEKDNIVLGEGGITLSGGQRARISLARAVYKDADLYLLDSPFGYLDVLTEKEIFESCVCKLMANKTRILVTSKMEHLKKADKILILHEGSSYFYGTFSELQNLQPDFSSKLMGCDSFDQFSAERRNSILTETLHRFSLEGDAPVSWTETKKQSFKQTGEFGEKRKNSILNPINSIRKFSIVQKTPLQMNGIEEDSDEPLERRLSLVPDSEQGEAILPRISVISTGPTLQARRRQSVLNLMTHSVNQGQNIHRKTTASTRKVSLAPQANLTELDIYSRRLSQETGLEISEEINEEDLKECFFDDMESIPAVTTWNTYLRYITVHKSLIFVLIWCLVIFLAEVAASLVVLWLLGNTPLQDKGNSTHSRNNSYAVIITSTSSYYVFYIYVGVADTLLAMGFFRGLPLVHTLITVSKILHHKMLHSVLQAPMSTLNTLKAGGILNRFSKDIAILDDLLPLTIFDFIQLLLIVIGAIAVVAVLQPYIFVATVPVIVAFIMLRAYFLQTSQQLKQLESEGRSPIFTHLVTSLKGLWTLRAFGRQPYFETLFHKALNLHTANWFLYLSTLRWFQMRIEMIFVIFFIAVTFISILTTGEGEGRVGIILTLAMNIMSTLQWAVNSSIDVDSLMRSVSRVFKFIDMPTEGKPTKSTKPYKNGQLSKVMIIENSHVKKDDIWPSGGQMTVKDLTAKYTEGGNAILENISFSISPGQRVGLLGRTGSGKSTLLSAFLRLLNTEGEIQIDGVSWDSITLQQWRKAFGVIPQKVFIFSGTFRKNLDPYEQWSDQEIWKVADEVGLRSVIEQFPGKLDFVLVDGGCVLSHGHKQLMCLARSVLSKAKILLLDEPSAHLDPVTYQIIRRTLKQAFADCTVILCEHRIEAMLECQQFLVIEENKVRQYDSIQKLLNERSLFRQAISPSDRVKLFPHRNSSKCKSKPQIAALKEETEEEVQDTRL
Sequence of Cystic fibrosis transmembrane conductance regulator (P13569 as listed by the source): as above
Sequence of Cystic fibrosis transmembrane conductance regulator (Homo sapiens), P13569 [K1250A] (P13569 whole entry K1250A): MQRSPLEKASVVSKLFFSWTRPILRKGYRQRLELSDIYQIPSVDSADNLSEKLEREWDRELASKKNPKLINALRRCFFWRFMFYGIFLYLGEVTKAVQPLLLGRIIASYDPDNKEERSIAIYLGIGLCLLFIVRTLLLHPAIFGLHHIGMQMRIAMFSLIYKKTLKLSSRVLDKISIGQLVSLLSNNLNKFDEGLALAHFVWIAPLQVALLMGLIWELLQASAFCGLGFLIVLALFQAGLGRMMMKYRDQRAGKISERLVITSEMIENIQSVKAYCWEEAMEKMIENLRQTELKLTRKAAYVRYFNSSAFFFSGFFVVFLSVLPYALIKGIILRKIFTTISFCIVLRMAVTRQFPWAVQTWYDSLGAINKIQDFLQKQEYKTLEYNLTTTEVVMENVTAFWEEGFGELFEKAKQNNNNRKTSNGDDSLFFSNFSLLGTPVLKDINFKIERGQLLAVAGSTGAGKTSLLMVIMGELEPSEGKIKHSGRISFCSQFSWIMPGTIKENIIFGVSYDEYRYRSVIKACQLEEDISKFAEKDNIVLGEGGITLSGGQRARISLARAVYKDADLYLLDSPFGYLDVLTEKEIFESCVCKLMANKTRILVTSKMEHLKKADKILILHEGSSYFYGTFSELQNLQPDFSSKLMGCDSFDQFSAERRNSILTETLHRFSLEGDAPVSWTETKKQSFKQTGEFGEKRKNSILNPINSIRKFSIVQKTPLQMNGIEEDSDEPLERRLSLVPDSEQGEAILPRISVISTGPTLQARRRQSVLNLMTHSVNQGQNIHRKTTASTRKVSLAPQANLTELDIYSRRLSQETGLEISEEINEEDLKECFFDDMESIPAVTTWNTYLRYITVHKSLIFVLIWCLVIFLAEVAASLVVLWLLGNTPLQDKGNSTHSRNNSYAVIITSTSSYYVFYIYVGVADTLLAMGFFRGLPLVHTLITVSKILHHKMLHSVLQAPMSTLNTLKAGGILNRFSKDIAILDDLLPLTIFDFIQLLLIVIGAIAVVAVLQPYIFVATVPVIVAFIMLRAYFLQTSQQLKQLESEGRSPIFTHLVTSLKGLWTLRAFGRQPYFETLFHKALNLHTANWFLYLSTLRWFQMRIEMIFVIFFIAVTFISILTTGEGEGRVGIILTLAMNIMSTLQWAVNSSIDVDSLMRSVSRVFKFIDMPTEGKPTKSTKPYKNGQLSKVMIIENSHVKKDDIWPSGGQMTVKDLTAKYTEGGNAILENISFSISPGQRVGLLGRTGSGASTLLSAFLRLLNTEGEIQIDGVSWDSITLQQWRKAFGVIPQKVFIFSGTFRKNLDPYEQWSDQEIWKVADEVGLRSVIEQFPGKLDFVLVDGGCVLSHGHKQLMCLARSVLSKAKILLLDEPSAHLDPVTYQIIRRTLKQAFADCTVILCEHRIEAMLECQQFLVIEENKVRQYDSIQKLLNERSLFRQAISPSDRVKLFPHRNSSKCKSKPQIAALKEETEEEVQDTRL

fold change (FC) [1] | Activity [2] [%] | fold change (FC) [3] | EC50 [4] [µM] | fold change (FC) [5] | SMILES
8.29 |  |  |  |  | O=c1c(-c2ccc(O)cc2)coc2cc(O)cc(O)c12
3.69 | 31 | 1.11 | 3.5 | 3.76 | O=c1cc(-c2ccncc2)oc2c1ccc1ccccc12
